Legend:
[1] = molecular target: Serine/threonine-protein kinase PAK 3 (Homo sapiens) (UniProt O75914); assay: Selectivity interaction (SelectScreen profiling (Invitrogen)) EUB0000607a PAK3; details: at 2 µM
[2] = molecular target: Tyrosine-protein kinase Blk (Homo sapiens) (UniProt P51451); assay: Selectivity interaction (KinomeScan (DiscoverX)) EUB0000607a BLK; details: at 10 µM
[3] = molecular target: T1, Serine/threonine-protein kinase 3 (Homo sapiens) (UniProt Q13188); assay: Selectivity interaction (Upstate Kinase Profiler service (Millipore)) EUB0000056c STK3; details: at 1 µM
T1 sequence (whole entry): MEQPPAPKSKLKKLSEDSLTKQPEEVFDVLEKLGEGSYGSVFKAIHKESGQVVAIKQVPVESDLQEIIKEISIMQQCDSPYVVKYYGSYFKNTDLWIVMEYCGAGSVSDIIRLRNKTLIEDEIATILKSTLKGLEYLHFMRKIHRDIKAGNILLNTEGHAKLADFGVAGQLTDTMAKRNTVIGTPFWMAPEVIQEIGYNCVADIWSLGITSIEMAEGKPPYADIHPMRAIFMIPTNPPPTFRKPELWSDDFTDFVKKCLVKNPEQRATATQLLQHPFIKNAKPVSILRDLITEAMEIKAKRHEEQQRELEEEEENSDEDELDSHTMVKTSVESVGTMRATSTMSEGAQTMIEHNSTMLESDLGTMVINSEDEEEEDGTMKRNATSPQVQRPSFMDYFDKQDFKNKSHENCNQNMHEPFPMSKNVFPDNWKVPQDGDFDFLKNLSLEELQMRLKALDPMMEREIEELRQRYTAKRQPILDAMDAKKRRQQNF

[4] = molecular target: Calcium/calmodulin-dependent protein kinase type 1D (Homo sapiens) (UniProt Q8IU85); assay: Selectivity interaction (KinomeScan (DiscoverX)) EUB0000595a CAMK1D; details: at 10 µM
[5] = molecular target: Macrophage colony-stimulating factor 1 receptor (Homo sapiens) (UniProt P07333); assay: Selectivity interaction (KinomeScan (DiscoverX)) EUB0001079a CSF1R; details: at 1 µM
[6] = molecular target: T2, Phosphatidylinositol 4,5-bisphosphate 3-kinase catalytic subunit delta isoform (Homo sapiens) (UniProt O00329); assay: Selectivity interaction (Kinase panel (KiNativ target engagement assay in Jurkat cells)) EUB0001635a PIK3CD; type: cell-based; details: Selectivity number of off-targets 0.0, Selectivity number of targets 233.0, Source Knowledge https://www.sciencedirect.com/science/article/pii/S2451945619300674?via%3Dihub, at 1 µM
T2 sequence (whole entry): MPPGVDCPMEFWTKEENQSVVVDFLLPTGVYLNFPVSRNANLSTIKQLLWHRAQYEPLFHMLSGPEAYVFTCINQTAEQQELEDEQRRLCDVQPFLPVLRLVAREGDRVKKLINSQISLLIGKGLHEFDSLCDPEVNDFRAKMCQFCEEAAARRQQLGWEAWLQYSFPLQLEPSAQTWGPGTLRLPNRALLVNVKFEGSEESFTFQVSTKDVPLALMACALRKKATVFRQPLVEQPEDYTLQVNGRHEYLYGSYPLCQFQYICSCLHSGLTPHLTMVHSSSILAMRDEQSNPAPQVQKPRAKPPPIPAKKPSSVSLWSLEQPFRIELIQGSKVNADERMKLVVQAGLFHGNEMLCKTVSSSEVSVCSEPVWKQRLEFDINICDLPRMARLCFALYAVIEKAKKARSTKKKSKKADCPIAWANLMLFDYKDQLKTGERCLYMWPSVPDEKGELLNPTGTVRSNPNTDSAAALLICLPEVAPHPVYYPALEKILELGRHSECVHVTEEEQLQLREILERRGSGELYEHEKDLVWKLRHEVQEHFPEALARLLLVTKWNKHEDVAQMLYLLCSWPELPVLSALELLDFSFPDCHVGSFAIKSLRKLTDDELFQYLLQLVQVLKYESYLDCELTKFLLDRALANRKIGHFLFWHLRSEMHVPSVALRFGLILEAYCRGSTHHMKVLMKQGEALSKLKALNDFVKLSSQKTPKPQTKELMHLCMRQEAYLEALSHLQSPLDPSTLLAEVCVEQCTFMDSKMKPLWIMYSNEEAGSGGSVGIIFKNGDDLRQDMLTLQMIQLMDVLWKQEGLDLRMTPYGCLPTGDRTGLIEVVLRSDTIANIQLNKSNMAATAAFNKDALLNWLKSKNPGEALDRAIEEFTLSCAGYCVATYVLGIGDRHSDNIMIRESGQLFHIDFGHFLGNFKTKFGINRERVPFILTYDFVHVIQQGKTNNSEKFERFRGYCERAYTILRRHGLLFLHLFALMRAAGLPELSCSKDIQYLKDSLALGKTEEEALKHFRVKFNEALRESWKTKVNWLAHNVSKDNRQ

[7] = system: Tyrosine-protein kinase ABL1 (Homo sapiens), P00519 [T315I]; details: at 10 µM
[8] = molecular target: T3, Serine/threonine-protein kinase ICK (Homo sapiens) (UniProt Q9UPZ9); assay: Selectivity interaction (KinomeScan (DiscoverX)) EUB0001619a ICK; details: at 1 µM
T3 sequence (whole entry): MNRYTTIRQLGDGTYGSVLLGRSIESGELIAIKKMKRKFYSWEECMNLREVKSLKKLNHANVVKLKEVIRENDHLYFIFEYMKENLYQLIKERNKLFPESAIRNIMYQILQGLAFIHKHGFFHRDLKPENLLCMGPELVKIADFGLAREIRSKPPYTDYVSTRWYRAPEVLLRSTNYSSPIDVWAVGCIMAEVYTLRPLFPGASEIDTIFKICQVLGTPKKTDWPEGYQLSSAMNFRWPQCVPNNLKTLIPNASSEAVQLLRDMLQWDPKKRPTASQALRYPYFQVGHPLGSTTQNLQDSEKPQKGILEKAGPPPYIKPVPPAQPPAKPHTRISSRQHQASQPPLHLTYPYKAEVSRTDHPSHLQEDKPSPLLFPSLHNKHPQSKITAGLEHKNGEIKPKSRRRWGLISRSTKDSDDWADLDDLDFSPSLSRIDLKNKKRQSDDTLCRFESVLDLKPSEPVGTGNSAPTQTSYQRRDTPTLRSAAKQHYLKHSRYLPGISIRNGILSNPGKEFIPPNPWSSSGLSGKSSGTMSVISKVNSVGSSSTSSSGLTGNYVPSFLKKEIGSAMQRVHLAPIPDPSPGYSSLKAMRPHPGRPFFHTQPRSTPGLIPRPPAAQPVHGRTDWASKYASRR

Tyrosine-protein kinase Blk (Homo sapiens), sequence (P51451 2-505 limits assumed): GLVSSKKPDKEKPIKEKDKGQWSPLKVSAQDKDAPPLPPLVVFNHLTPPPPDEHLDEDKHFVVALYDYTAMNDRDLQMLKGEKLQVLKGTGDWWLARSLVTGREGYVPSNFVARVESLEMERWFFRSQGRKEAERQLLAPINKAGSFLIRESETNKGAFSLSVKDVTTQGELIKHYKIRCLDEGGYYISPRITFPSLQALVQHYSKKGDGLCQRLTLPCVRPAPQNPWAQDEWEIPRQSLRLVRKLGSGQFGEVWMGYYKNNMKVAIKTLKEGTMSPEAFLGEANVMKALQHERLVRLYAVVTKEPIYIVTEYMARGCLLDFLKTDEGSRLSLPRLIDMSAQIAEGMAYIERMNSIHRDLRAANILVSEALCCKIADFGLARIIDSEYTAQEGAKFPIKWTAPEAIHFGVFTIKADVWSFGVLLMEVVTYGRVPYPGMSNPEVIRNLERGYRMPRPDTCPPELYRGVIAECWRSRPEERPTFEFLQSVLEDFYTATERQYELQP
Calcium/calmodulin-dependent protein kinase type 1D (Homo sapiens), sequence (Q8IU85 whole entry, looked up): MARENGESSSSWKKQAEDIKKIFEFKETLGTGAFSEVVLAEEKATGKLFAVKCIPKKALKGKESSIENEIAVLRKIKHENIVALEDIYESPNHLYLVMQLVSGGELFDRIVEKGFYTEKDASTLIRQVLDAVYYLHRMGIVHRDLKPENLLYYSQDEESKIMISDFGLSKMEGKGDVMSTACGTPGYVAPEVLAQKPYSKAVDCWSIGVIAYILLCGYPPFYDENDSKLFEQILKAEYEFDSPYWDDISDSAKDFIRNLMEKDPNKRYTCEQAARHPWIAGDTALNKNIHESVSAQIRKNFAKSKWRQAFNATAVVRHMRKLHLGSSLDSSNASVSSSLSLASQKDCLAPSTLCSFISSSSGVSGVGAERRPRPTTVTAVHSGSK
Macrophage colony-stimulating factor 1 receptor (Homo sapiens), sequence (P07333 whole entry, canonical isoform): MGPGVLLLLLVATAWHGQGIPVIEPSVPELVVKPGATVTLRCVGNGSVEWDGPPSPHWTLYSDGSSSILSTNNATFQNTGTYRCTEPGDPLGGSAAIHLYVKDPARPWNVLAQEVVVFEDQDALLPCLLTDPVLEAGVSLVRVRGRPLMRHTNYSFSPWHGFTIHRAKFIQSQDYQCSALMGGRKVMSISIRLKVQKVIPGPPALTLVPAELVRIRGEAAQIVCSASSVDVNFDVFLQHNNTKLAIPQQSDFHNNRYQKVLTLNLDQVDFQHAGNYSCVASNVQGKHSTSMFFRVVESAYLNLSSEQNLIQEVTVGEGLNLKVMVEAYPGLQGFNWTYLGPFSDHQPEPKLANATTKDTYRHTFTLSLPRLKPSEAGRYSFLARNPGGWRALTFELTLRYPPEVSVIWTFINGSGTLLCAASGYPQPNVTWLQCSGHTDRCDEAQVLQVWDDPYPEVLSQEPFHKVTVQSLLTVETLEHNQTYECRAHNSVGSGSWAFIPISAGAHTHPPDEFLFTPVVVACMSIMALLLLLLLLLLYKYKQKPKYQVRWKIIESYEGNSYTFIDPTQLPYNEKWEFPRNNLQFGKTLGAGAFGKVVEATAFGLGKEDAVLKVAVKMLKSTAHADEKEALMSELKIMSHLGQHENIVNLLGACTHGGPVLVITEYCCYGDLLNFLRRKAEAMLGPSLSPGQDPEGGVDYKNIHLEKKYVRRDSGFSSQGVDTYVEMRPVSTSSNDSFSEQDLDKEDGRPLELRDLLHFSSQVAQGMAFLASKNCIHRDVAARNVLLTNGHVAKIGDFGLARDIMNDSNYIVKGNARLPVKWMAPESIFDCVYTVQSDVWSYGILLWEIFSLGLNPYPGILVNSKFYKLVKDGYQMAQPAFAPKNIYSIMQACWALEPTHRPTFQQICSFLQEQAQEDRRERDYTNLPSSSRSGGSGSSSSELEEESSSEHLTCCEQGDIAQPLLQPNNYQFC
Serine/threonine-protein kinase PAK 3 (Homo sapiens), sequence (O75914 whole entry, looked up): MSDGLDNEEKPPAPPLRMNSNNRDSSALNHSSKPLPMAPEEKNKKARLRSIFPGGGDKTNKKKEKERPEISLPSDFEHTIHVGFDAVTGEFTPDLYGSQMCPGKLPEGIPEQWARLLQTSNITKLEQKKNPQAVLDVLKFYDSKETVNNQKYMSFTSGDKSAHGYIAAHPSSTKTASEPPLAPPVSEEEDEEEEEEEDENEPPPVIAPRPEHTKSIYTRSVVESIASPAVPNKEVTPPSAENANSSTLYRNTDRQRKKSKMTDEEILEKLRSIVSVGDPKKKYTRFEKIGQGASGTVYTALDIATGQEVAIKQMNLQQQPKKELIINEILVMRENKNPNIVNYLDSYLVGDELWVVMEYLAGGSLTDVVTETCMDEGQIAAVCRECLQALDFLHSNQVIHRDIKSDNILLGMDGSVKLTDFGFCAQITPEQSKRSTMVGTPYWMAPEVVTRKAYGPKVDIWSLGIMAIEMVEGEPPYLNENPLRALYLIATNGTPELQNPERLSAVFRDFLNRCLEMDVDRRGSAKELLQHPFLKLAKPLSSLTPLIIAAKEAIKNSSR

Q: Which % of inhibition [1] does the source give for `CNC(=O)Nc1ccc(-c2nc(N3CC4CCC(C3)O4)c3cnn(C4CCC5(CC4)OCCO5)c3n2)cc1` here?
A: Its % of inhibition is 1%.

Q: What about the % of control [2] of the same molecule?
A: The % of control was 96%.

Q: For `Cc1ccc(-c2ccc3c(ccc4sc5c(c43)NC[C@@H](C)NC5=O)n2)cn1`, which % of inhibition [3] is on record?
A: Its % of inhibition is -17%.

Q: `COCC(=O)NC/C=C/c1ccc2ncnc(Nc3ccc(Oc4ccc(C)nc4)c(C)c3)c2c1` [CP-724714] was tested. Which % of control [4] did it give?
A: The % of control was 87%.

Q: How did the % of control [5] turn out when `Nc1cnc(N2CCc3cc(S(=O)(=O)Nc4c(F)cc(Cl)cc4F)cc(N4CCCC4=O)c32)nc1` [TP-020n] was run?
A: The % of control was 100%.

Q: With `C=CC(=O)Nc1ccc(C(=O)Nc2[nH]nc3c2CN(C(=O)N[C@H](CN(C)C)c2ccccc2)C3(C)C)cc1` as the molecule, how does the % of engagement [6] read?
A: The % of engagement was -10.2%.

Q: How did the % of control [7] turn out when `Cc1cc([C@@H](C)Nc2ccccc2C(=O)O)c2nc(N3CCOCC3)cc(=O)n2c1` [AZD-6482] was run?
A: The % of control was 70%.

Q: `N#Cc1cccc(-c2c[nH]c3ncnc(N4CCOCC4)c23)c1` was tested. Which % of control [8] did it give?
A: Its % of control is 96%.
